Patent US20170196859A1, “PHARMACEUTICAL COMPOSITION COMPRISING PYRAZINE CARBOXAMIDE COMPOUND AS ACTIVE INGREDIENT” (Astellas Pharma Inc., priority 2014, published 2017)

How the values were obtained:
JAK3 kinase = biological target: T1, JAK3 kinase (Homo sapiens, UniProt P52333); assay: JAK3 kinase inhibitory activity (QSS Assist JAK3_MSA kit); format: biochemical; settings: 30 min preincubation, ATP 1 mM
T1 construct: purchased Carna Bioscience QSS Assist JAK3_MSA kit
T1 sequence (P52333 1-1124): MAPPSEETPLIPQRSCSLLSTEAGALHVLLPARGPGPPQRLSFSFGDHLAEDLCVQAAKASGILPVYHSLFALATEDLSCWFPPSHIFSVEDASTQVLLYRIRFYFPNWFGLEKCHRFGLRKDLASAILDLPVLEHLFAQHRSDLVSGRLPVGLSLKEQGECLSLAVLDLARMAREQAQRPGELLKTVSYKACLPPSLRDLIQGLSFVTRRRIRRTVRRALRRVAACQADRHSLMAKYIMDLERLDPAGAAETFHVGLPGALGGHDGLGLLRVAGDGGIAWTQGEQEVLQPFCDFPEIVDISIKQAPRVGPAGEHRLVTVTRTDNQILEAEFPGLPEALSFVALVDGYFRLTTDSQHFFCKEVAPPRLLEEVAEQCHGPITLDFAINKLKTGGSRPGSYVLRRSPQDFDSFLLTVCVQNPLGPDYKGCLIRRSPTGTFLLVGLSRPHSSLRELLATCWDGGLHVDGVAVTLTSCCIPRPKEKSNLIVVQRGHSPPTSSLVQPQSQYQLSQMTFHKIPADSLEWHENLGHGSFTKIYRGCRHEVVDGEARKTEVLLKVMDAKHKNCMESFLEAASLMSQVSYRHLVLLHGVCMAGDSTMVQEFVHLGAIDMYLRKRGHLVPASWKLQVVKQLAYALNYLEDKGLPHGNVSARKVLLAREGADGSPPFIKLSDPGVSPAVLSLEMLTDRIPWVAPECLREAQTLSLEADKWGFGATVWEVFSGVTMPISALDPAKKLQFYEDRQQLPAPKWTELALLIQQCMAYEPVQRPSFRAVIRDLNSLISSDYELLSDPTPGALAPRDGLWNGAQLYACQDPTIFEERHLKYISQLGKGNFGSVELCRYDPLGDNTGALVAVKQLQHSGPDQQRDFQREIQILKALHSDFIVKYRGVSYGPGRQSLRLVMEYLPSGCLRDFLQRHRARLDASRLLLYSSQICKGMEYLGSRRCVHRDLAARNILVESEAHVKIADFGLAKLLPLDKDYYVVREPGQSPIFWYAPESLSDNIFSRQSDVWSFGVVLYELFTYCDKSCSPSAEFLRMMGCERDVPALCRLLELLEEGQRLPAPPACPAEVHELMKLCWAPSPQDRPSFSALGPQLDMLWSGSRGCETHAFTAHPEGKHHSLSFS
Procedure: The JAK3 kinase inhibitory activity was evaluated using QSS Assist JAK3_MSA kit (Carna Bioscience).
The test compound B was dissolved in dimethyl sulfoxide (DMSO) to prepare a solution at a 100-fold concentration as compared to the test concentration. The solution was also 25-fold diluted with an appurtenant assay buffer to obtain a test compound B solution. In addition, JAK3 kinase appurtenant to the kit was used for the reaction.
5 μL of the test compound B solution at a 4-fold concentration, prepared using the aforementioned assay buffer, and 10 μL of a JAK3 kinase solution at a 2-fold concentration were mixed within a well of a 384 well plate, and incubated at room temperature for 30 minutes. Continuously, 5 μL of a substrate peptide/ATP/MgCl2 solution at a 4-fold concentration was added thereto to perform the reaction at room temperature for 1 hour. The substrate peptide was used at a final concentration of 1 μM, ATP at a final concentration of 1 mM, and MgCl2 at a final concentration of 5 mM. Thereafter, 60 μL of an appurtenant termination buffer was added thereto to stop the reaction. The JAK3 kinase activity was calculated by quantifying a product conversion ratio obtained from the substrate peptide peak height and the product (phosphorylated substrate peptide) peak height with LabChip EZ Reader II (PerkinElmer). […]

[1] = system: human diffuse large B-cell lymphoma cell line OCI-Ly10 cells; assay: Proliferation inhibition, OCI-Ly10 cells (CellTiter-Glo); format: cell-based; settings: OCI-Ly10, 72 h, 3 days culture, 100% inhibition = value on day of cell seeding
Procedure: OCI-Ly10 is a cell line originated from human diffuse large B-cell lymphoma, which is a B-cell malignant neoplasm, and the BTK dependency has been confirmed (Nature. 2010; 463:88-92). The human diffuse large B-cell lymphoma cell line OCI-Ly 10 cells (University Health Network) cultured in an Iscove's Modified Dulbecco's Medium (Sigma) containing a 20% bovine serum were seeded into 96 well plates. On the same day, DMSO solutions of the test compound B at a final concentrations from 0.1 nM to 1 μM or only DMSO (DMSO group) were added thereto to culture the cells at 37° C. in 5% CO2 for 3 days. Thereafter, the cell number was measured using a cell counting reagent (CellTiter-Glo (registered trademark) Luminescent Cell Viability Assay (Promega)). The cell proliferation inhibition rate was calculated by the measured value in the DMSO group set as 0% inhibition and the measured value in the DMSO group on day of cell seeding set as 100% inhibition.

[2] = system: human acute myeloid leukemia cell line MV4-11 cells; assay: Proliferation inhibition, MV4-11 cells (CellTiter-Glo); format: cell-based; settings: MV4-11, 72 h, 3 days culture
Procedure: MV4-11 is a cell line originated from human acute myeloid leukemia and the BTK expression has been confirmed (Mol. Cell Proteomics. 2009; 8(7):1751-1764). The human acute myeloid leukemia cell line MV4-11 cells (American Type Culture Collection, CRL-9591) cultured in an Iscove's Modified Dulbecco's Medium (Sigma) contain […] 10% bovine serum were seeded into 96 well plates. On the next day, DMSO solution of the test compound B at final concentrations from 1 nM to 10 μM or only DMSO (DMSO group) were added thereto to culture the cells at 37° C. in 5% CO2 for 3 days. Thereafter, the cell number was measured using a cell counting reagent (CellTiter-Glo (registered trademark) Luminescent Cell Viability Assay (Promega)). The cell proliferation inhibition rate was calculated as the measured value in the DMSO group set as 0% inhibition and the measured value in the well only with the medium on which the cells have not been seeded set as 100% inhibition.

## C=CC(=O)N1CC[C@@H](Oc2nc(Nc3ccc(N4CCC(N5CCN(C)CC5)CC4)cc3)c(C(N)=O)nc2CC)C1 [test compound B, 5-{[(3R)-1-acryloylpyrrolidin-3-yl]oxy}-6-ethyl-3-({4-[4-(4-methylpiperazin-1-yl)piperidin-1-yl]phenyl}amino)pyrazine-2-carboxamide monomethanesulfonate]
JAK3 kinase
  IC50: 0.44 nM
[1]
  GI50: 1 nM
[2]
  IC50: 10 nM
